Values after ≈ are worked out from the molar mass of the structure shown. Marks after values point to notes of the source that are not given here.
Tests used:
[1] = test system: adults with nonalcoholic steatohepatitis (NASH) and fibrosis stages F2-F3; conditions: phase II clinical results; cited from earlier work
[2] = Determination of compound solubility in PBS buffer (LC-MS/MS); assay type: physicochemical; conditions: for solubility at 2 h: 25 °C, kinetic from dmso stock; for Solubility in PBS buffer solution compared with silymarin (in words): pH 4
Protocol: The test compounds were 7, 67 and 85, respectively; the control compound was silymarin, purchased from Shanghai Dibai Biotechnology Co., Ltd., with the batch number HH06. Both the test compounds and the control compound were prepared into 10 mM stock solutions using DMSO. Phosphate buffered saline (PBS), with pH of 4.0 and 7.4, was used to test the solubility of the test compounds.
Treatment of test compound and control compound: 30 μL of test compound or control compound stock solution (10 mM) per well was added in a specially made solubility sample plate, and then 970 μL of PBS with different pH was added to each well (pH was 4.0 and 7.4, respectively). Repeated wells were set in the test. A stir bar was added to each well that was covered with a polytetrafluoroethylene or silica gel plug. Stirring was performed at 25° C. at 1100 rpm for 2 hours. 10 μL of sample was taken from each well, and then 990 μL of water and acetonitrile mixture (including internal standard substance) was added to mix well, followed by filtering with a filter plate.
Standard treatment: 10 mM stock solution was diluted with DMSO to 300 μM, then 10 μL of compound diluent was taken, and 990 μL of water and acetonitrile mixture (including internal standard substance) was added to mix well and formulated into a standard solution with the final concentration 3 μM.
The solubility sample plate was placed in the autosampler and the LC-MS/MS method was used for analysis. The concentration of the test compound was calculated by the response value of the test compound and standard, and the concentration of the standard.

[3] = test system: zebrafish non-alcoholic fatty liver; test: Fat reduction or elimination effect on thioacetamide-induced zebrafish non-alcoholic fatty liver (Oil Red O staining); assay type: in vivo; conditions: 100 μM; for The total optical density of liver fat: mean ± SE, n = 10; for inhibition at 100 µM: Danio rerio, read-out: Inhibition rate of liver steatosis
Protocol: 40 mM stock solution of test compounds 4, 5, 6, 7, 46, 67, 78, 85, 92 and 101 were prepared with DMSO, and stored in a refrigerator at −20° C. The positive control compound S-adenosylmethionine (SAM) was purchased from Aladdin Reagent (Shanghai) Co., Ltd., with the batch number F1523051, which was prepared into a 50 mM stock solution with DMSO. The control compound silymarin was purchased from Shanghai Dibai Biotechnology Co., Ltd., with the batch number EE09, which was prepared into a 40 mM stock solution with DMSO. Thioacetamide was purchased from Sigma-Aldrich, with the batch number BCBV3031, which wasprepared into a 1 M stock solution with DMSO. Oil Red O was purchased from Sigma-Aldrich, with the batch number SLBP5248V. 4% paraformaldehyde was purchased from Dingguo Biotechnology Co., Ltd., with the batch number 773001800. Propylene glycol was purchased from Sinopharm Chemical Reagent Co., Ltd., with the batch number 20170615.
The melanin allele mutant translucent Albino line zebrafish was reproduced in natural paired mating. The fish age was 3 days after fertilization, with 30 fish per experimental group.
The above zebrafish were raised in fish farming water at 28° C. (water quality: 200 mg instant sea salt was added to 1 L of reverse osmosis water, conductivity was 480-510 μS/cm; pH was 6.9-7.2; hardness was 53.7-71.6 mg/L CaCOs), the experimental animal use license number was: SYXK (Zhejiang) 2012-0171. Feeding management met the requirements of international AAALAC certification.
Three days after fertilization, the normal melanin allele mutant translucent Albino strain of zebrafish was randomly selected and placed in a six well plate with 30 fish per well (i.e. each experimental group), and then thioacetamide with the final concentration of 7 mM was used to treat zebrafish for 72 hours to establish the non-alcoholic fatty liver model.
The zebrafish were transferred to a six-well plate, with 30 fish per well (i.e., each experimental group) randomly. Non-alcoholic fatty liver model in zebrafish were induced by thioacetamide. 40 mM test compounds 4, 5, 6, 7, 46, 67, 78, 85, 92 and 101 were quantitatively transferred to a six-well plate, and diluted with water to the corresponding concentration. Test compounds 4, 5, 6 and 7 were formulated into two dose groups with final concentration of 100 μM and 200 μM, respectively; test compound 46 was formulated into a dose group with final concentration of 200 μM; test compounds 67, 78, 85, 92 and 101 were formulated into dose groups with a final concentration of 100 μM; 50 mM positive control SAM was formulated with water to a dose group with final concentration of 50 μM, and a 40 mM positive control silymarin was formulated with water to two concentration dose groups with final concentration of 100 μM and 200 μM. A normal control group (zebrafish treated with fish farming water) and a model control group were set at the same time, and the total volume of each well was 3 mL. Except for the normal control group, the other experimental groups were treated with thioacetamide for 72 hours and stained with Oil Red O. After staining, 10 zebrafish were randomly selected from each experimental group and photographed under a dissecting microscope, NIS-Elements D 3.10 advanced image processing software was used to perform image analysis and collect data, the total optical density (S) of zebrafish liver fat was statistically analyzed, and for the inhibitory effect of each experimental group on liver steatosis of zebrafishwas evaluated by the following formula, the results of statistical analysis were expressed as mean±SE: Inhibition rate of liver steatosis (%)=[S(model control group)−S(test compound group)]/[S(model control group)−S(normal control group)]×100%
Statistical analysis was performed using analysis of variance and Dunnett's T-test, and p<0.05 indicated a significant difference. […]

[4] = test system: Patients With Primary Biliary Cirrhosis; conditions: phase III study; cited from earlier work

Row | solubility at 2 h ([2]; pH 4, aqueous buffer) | solubility at 2 h ([2]; pH 7.4, aqueous buffer) | Structure (SMILES) | subjects with improved fibrosis after treatment [1] | Solubility in PBS buffer solution compared with silymarin (in words) [2] | Inhibition rate of liver steatosis [3] | Therapeutic effect on non-alcoholic fatty liver of zebrafish (in words) [3] | The total optical density of liver fat [3] | inhibition at 100 µM [3] | patients with serious cardiovascular adverse events [4]
1 | – | – | Cc1cc(F)c(C(=O)Nc2cccc(-c3nncn3C(C)C)n2)cc1-n1cnc(C2CC2)c1 [GS-4997] | 43% | – | – | – | – | – | –
2 | 160 µM (≈ 79.7 µg/mL) | 150 µM (≈ 75 µg/mL) | COc1cc(C2Oc3cc(C4Oc5cc(O)cc(OC)c5CC4O)cc(O)c3OC2CO)ccc1O (stereo not shown) [Compound 85, 2-{8-hydroxy-3-(4-hydroxy-3-methoxyphenyl)-2-hydroxymethyl-2,3-dihydrobenzo[b][1,4]dioxan-6-yl}-5-methoxychroman-3,7-diol] | – | significantly higher than that of silymarin | >100*** % | significant therapeutic effects | 17378 ± 710 Pixels | > 100% | –
3 | 148 µM (≈ 73.9 µg/mL) | 146 µM (≈ 72.9 µg/mL) | COc1cc(O)c2c(c1)OC(c1cc(O)c3c(c1)OC(c1ccc(O)c(OC)c1)C(CO)O3)C(O)C2 (stereo not shown) [Compound 67, 2-{8-hydroxy-3-(4-hydroxy-3-methoxyphenyl)-2-hydroxymethyl-2,3-dihydrobenzo[b][1,4]dioxan-6-yl}-7-methoxychroman-3,5-diol] | – | significantly higher than that of silymarin | >100*** % | significant therapeutic effects | 16667 ± 469 Pixels | > 100% | –
4 | – | – | CC[C@H]1[C@@H](O)[C@@H]2[C@H](CC[C@]3(C)[C@@H]([C@H](C)CCC(=O)O)CC[C@@H]23)[C@@]2(C)CC[C@@H](O)C[C@@H]12 [Obeticholic acid] | – | – | – | – | – | – | 3%

Source: patent US11643405B2, “Compound for treatment or prevention of liver diseases” (JIANGSU ATOM BIOSCIENCE AND PHARMACEUTICAL CO., LTD., priority 2018, dated 2023)
